One assay addresses Cytochrome P450 2D6 (Homo sapiens, UniProt P10635). The experiment in a line: qHTS Assay for Inhibitors and Substrates of Cytochrome P450 2D6. [Related pubchem assays: 410 ]. Conditions: read-out: Potency. Type of assay: ADME. A general note: qHTS replaces the single test concentration by a dilution series.
Assay [1] concerns the target T1, Alkaline phosphatase, tissue-nonspecific isozyme (Homo sapiens, UniProt P05186).
T1 sequence (P05186 whole entry): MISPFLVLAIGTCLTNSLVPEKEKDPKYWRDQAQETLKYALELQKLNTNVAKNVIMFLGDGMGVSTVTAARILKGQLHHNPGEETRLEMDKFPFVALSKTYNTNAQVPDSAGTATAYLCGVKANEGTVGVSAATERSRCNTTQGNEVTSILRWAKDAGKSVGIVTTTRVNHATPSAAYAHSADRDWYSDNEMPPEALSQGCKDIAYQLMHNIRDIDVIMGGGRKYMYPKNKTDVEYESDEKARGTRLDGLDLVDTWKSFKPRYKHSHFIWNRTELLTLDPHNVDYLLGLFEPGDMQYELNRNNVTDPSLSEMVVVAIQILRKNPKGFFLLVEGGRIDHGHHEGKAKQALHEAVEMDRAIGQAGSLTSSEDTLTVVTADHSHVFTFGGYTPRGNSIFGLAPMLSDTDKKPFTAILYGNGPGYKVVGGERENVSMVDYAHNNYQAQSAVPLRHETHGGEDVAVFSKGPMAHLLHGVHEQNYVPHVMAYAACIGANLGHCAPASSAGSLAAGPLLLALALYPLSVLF

The target of assay [2] is Peroxisome proliferator-activated receptor gamma/Nuclear receptor coactivator 1 (Homo sapiens, UniProt P37231). Type of assay: functional.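 Also: agonist potency as compounds enhance coactivator SRC-1 recruitment to PPARgamma.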
Assay [3] addresses Peroxisome proliferator-activated receptor gamma/Nuclear receptor coactivator 2 (Homo sapiens, UniProt P37231). Type of assay: functional.
A further assay has as its target Cytochrome P450 2C9 (Homo sapiens, UniProt P11712).
The target of another assay is Cytochrome P450 2C19 (Homo sapiens, UniProt P33261). As to the kind of experiment: Cytochrome panel assay with activity outcomes. Panel member name: p450-cyp2c19 Compounds with AC50 equal or less than 10 uM are considered active. Type of assay: functional. To be noted: read-out: AC50.
Assay [4] addresses Peroxisome proliferator-activated receptor gamma/Nuclear receptor coactivator 3 (Homo sapiens, UniProt P37231). Type of assay: functional.
The target in assay [5] is T2, High affinity choline transporter 1 (Homo sapiens, UniProt Q9GZV3).
T2 sequence (Q9GZV3 whole entry): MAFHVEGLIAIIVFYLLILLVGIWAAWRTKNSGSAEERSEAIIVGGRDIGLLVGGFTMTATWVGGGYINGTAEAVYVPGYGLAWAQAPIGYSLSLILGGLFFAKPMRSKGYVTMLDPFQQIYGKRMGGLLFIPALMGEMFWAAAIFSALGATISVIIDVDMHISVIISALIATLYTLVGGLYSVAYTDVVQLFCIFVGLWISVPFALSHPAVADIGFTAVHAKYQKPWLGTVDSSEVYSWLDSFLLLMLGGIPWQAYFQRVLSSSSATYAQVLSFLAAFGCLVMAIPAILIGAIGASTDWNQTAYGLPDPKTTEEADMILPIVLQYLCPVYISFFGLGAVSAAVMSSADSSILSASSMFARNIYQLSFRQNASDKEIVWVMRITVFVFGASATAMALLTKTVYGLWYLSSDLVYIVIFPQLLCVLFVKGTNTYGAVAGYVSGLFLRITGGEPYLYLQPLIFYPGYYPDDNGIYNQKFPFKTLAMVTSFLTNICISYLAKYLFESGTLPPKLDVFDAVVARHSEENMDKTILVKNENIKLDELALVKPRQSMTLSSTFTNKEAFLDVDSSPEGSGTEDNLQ
The experiment in a line: human choline transporter blockers, potency – cell-based, 10-point CRC, membrane potential dye, dose response (AID 588401).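 Also: membrane potential dye fluorescence of choline-evoked depolarization via CHT.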 Type of assay: functional.

The nature of assay [6]: CCR5-tropic HIV-1 fusion blockers – cell-based, CCR5-tropic Env, dose response (AID 2279). Type of assay: functional.
Assay [7] addresses T2, High affinity choline transporter 1. The experiment in a line: human choline transporter blockers, potency – cell-based, 5-point CRC, membrane potential dye, dose response (AID 504840). Type of assay: functional.
Assay [8] has as its target T3, Polyadenylate-binding protein 1 (Homo sapiens, UniProt P11940). The experiment in a line: MLLE binding blockers, Cy5 peptide tracer – biochemical, fluorescence polarization, Cy5-PAM2 peptide, secondary, miRNA deadenylation inhibitor project, dose response (AID 602260). Type of assay: functional. To be noted: read-out: IC50_Mean.
The target of the next assay is Beta-galactosidase (Escherichia coli, UniProt Q8VNN2). The experiment in a line: detection-enzyme interference by beta-gal modulators – biochemical, E. coli enzyme, set 3, artefact control for CCR6 antagonist project, dose response (AID 504712). Type of assay: functional.
Assay [9] addresses T3, Polyadenylate-binding protein 1. As to the kind of experiment: MLLE domain peptide-binding blockers, IC50 – biochemical, fluorescence polarization, FITC-PAM2 peptide, dose response (AID 602259). Type of assay: functional. Conditions: read-out: IC50_Mean. On the technique in general: Polarisation of emitted light reports the rotation of a fluorescent probe.
The target of assay [10] is C-C chemokine receptor type 6 (Homo sapiens, UniProt P51684). As to the kind of experiment: antagonism of CCR6 beta-arrestin recruitment – cell-based, luminescent beta-arrestin readout, dose response (AID 504728). Type of assay: functional.
Assay [11] can be described thus: A Cell Based Assay for the Identification of Probe candidate Compounds with Anti- Venezuelan Equine Encephalitis virus. [Related pubchem assays: 2409, 2419, 1621, 2238, 2405, 2024, 2065, 2402, 2414, 1635, 1650, 2244 ]. Type of assay: functional.
Assay [12] can be described thus: A Cell Based Secondary Assay To Explore Cytotoxicity of Compounds that Sensitize Mycobacterium Tuberculosis to Beta-Lactam Antibiotics. Type of assay: functional.
Assay [13] concerns the target Melanin-concentrating hormone receptor 1 (Homo sapiens, UniProt Q99705). The experiment in a line: Late-stage fluorescence-based counterscreen for antagonists of the G-protein coupled receptor 7 (GPR7): cell-based dose response assay to identify antagonists of the melanin-concentrating hormone receptor 1 (MCHR1). [Related pubchem assays (depositor defined):AID1861, AID1880, AID1952, AID2148, AID2251, AID2257, AID485339]. Type of assay: functional. Background: A counterscreen serves to expose hits that act by an unwanted route or on another target.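 Also: stimulated with 30 nM MCH peptide agonist.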

Assay [14] concerns Streptococcus sp. 'group A'. The experiment in a line: Streptococcus pyogenes SK(-)GAS viability under kanamycin – luminescence, BacTiterGlo, confirmation, counter-screen for streptokinase expression inhibitor project, dose response (AID 1900). Type of assay: functional, organism-based.
Assay [15] concerns the target T4, Voltage-gated N-type calcium channel alpha-1B subunit/Amyloid beta A4 precursor protein-binding family A member 1 (Homo sapiens, UniProt Q00975+Q02410). Type of assay: protein assay.
For another assay, the target named is T5, Streptokinase A (Streptococcus pyogenes serotype M1, UniProt P10520).
T5 sequence (P10520 whole entry): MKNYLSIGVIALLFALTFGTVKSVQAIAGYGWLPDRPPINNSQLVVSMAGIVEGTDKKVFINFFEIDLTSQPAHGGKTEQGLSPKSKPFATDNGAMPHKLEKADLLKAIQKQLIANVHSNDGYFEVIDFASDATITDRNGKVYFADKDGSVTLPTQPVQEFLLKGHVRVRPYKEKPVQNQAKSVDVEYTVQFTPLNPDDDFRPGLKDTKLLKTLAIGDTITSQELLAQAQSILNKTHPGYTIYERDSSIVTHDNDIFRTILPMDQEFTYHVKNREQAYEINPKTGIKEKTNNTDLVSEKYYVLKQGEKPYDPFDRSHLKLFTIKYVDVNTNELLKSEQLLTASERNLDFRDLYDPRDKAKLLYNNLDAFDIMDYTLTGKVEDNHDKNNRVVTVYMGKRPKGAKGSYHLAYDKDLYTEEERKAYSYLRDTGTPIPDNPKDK
The experiment in a line: viability-normalized secreted streptokinase activity reduction – plasminogen activation absorbance, OD405, dose response (AID 1914).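 Also: secreted streptokinase activity via plasminogen activation per viability signal from cell pellet.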 Type of assay: functional, Streptococcus pyogenes M1 GAS.

The target in assay [16] is Induced myeloid leukemia cell differentiation protein Mcl-1 (Homo sapiens, UniProt Q07820). Type of assay: functional.
The next assay relates to Streptococcus. The experiment in a line: GAS UMAA2166 growth inhibition – luminescence, BacTiterGlo, counter-screen for streptokinase expression inhibitor project, dose response (AID 1915).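 Also: potency for reduction of bacterial viability or growth.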 Type of assay: functional, organism-based.
For assay [17], the target named is T4, Voltage-gated N-type calcium channel alpha-1B subunit/Amyloid beta A4 precursor protein-binding family A member 1. Type of assay: protein assay. The source holds these as a separate data set.
The target in assay [18] is Glyceraldehyde-3-phosphate dehydrogenase (Homo sapiens, UniProt P04406).

SMILES strings stand for the structures. Active and inactive are the calls of the source. Where only a bound is given, the exact number is not on record here.

Sequence of Peroxisome proliferator-activated receptor gamma/Nuclear receptor coactivator 3 (P37231 whole entry): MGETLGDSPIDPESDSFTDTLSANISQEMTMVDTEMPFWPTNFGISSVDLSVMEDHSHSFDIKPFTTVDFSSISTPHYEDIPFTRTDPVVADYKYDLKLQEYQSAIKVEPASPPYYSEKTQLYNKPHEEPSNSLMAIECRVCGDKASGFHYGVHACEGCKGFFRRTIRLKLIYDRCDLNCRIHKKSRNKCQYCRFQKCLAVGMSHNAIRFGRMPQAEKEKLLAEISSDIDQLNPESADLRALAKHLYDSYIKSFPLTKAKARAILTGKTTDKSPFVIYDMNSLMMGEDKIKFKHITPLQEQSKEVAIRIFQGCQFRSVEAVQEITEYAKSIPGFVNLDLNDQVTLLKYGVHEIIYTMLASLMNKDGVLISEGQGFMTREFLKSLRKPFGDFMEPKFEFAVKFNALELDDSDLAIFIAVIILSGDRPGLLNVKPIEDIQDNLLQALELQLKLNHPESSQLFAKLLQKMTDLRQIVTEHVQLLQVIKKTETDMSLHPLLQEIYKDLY
Sequence of Peroxisome proliferator-activated receptor gamma/Nuclear receptor coactivator 3 (Q9Y6Q9 whole entry, further chain): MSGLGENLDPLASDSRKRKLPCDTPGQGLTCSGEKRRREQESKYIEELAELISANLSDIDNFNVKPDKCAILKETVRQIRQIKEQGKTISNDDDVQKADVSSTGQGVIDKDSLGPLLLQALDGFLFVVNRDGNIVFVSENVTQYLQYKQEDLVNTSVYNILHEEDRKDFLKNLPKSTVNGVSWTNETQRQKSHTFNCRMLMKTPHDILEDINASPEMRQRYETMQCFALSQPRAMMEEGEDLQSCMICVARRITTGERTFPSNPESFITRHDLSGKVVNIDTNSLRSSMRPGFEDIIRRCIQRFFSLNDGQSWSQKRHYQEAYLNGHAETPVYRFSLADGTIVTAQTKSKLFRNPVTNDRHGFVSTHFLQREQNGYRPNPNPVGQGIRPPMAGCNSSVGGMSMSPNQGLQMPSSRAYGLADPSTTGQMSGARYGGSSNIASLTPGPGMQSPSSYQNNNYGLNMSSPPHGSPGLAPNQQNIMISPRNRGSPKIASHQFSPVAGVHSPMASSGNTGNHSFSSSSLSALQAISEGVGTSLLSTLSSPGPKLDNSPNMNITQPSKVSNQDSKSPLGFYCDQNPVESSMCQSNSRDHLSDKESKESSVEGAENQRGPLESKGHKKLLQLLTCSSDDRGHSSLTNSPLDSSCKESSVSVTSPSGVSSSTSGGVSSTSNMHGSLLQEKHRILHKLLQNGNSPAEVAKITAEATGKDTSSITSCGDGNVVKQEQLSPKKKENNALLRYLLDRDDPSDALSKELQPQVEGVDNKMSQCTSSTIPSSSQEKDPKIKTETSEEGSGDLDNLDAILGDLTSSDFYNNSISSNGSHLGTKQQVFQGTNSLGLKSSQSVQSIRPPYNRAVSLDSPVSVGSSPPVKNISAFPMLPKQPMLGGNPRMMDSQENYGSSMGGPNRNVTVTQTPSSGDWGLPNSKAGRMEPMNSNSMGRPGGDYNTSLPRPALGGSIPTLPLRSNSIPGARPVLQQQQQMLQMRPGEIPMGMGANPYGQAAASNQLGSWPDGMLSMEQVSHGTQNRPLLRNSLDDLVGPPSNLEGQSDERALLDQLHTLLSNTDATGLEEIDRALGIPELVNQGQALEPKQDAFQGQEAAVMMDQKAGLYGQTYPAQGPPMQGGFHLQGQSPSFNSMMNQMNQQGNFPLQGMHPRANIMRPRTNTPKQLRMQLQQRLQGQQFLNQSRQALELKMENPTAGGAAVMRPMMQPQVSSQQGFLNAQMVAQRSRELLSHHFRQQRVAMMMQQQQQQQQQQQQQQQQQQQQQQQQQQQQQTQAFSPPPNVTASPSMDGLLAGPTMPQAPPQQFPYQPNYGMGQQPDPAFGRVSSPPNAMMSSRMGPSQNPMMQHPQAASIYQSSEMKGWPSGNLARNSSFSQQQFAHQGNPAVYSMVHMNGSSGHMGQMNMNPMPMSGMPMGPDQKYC
Sequence of Peroxisome proliferator-activated receptor gamma/Nuclear receptor coactivator 1 (P37231 whole entry): as the sequence (P37231 whole entry) above
Sequence of Peroxisome proliferator-activated receptor gamma/Nuclear receptor coactivator 1 (Q15788 whole entry, further chain): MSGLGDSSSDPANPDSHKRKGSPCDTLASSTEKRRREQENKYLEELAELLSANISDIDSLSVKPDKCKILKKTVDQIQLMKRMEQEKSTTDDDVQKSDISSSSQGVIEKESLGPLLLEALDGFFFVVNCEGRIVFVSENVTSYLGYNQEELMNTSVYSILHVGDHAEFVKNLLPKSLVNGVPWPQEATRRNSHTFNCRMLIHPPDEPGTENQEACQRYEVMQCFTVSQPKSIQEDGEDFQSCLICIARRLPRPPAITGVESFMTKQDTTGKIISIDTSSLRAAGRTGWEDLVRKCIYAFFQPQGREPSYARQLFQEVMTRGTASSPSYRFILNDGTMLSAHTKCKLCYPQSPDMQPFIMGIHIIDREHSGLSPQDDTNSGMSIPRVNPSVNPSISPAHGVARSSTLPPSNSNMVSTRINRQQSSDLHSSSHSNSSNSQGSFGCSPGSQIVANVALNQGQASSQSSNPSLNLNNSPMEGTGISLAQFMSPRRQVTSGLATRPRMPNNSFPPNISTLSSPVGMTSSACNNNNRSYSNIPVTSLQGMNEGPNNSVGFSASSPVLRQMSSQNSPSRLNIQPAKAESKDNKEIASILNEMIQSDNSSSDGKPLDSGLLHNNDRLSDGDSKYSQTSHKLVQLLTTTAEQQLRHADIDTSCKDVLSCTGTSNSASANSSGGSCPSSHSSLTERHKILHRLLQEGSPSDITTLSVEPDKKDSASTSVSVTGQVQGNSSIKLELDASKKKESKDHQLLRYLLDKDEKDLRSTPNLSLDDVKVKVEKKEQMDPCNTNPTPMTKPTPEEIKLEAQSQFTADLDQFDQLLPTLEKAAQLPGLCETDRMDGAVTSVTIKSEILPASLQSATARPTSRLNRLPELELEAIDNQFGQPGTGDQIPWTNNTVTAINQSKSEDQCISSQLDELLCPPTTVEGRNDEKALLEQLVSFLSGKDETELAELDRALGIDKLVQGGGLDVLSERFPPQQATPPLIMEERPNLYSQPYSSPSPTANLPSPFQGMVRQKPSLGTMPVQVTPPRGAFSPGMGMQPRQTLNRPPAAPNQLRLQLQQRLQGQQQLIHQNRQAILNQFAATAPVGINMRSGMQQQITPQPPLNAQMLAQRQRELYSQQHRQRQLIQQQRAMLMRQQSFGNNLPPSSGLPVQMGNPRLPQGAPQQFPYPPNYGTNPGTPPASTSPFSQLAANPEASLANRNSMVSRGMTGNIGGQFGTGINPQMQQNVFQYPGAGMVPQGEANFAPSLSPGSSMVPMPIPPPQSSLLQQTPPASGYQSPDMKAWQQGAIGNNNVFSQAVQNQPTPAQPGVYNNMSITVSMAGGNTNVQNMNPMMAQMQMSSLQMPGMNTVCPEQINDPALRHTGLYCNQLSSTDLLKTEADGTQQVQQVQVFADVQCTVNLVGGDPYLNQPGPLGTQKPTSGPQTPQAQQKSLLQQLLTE
Sequence of Cytochrome P450 2D6 (P10635 whole entry): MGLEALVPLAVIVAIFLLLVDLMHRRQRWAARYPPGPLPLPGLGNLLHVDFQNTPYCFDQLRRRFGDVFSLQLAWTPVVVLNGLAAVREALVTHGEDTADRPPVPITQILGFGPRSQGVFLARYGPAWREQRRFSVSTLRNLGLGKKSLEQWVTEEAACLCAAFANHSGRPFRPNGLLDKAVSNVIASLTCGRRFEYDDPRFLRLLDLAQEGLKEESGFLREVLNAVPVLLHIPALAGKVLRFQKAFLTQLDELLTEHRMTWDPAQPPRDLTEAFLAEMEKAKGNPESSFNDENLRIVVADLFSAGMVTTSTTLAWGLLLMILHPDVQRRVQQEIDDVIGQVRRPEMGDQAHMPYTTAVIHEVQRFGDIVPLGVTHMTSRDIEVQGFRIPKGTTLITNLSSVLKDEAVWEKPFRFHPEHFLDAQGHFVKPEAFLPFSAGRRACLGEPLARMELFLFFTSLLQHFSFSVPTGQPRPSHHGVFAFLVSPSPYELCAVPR
Sequence of Melanin-concentrating hormone receptor 1 (Q99705 whole entry): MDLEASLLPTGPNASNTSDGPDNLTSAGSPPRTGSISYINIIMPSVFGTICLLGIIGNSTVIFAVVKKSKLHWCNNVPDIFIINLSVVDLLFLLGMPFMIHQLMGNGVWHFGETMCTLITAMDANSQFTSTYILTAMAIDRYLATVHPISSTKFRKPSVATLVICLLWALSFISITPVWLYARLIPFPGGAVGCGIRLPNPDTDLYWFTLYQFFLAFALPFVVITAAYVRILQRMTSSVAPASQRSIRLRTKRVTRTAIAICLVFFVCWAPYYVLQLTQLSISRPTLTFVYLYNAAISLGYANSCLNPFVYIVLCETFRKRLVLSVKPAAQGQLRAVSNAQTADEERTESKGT
Sequence of Glyceraldehyde-3-phosphate dehydrogenase (P04406 whole entry): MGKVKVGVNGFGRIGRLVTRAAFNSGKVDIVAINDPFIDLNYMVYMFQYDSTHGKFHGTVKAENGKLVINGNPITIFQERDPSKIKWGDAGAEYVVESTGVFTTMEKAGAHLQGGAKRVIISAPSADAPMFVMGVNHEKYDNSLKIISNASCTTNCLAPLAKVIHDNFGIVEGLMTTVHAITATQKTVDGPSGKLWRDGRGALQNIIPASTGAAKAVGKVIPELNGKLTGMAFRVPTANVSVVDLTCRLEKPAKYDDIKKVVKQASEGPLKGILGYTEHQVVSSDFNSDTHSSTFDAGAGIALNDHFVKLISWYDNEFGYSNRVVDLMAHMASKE

Turning to `CN1CCc2cc3c(cc2[C@@H]1[C@H]1OC(=O)c2c1ccc1c2OCO1)OCO3`, at Cytochrome P450 2D6, the AC50 was 10 µM (inconclusive).

As for `COc1ccc(-n2c(=O)c3ccccc3n(CC(=O)NC3CCCCC3)c2=O)cc1OC`, the EC50 (as a rule, the concentration at which the effect is half-maximal) in assay [1] is > 100 µM (not active).

Consider `CCOC(=O)c1sc2nc(CC(=O)OC)nc(NCc3ccc(F)cc3)c2c1C`, for which the EC50 in assay [2], in assay [3] and in assay [4] was > 79.4 µM (not active) in each case. Also, the AC50 was 5.01 µM (inconclusive) on Cytochrome P450 2C9 and 5.62 µM (inconclusive) on Cytochrome P450 2C19.

Regarding `O=c1cccc2n1C[C@@H]1C[C@H]2CN2CCCC[C@H]12`, the AC50 at Cytochrome P450 2D6 is 25.1 µM (inconclusive).

Turning to `OCCN(CCO)Cc1nc(O)c2c(n1)-c1ccccc1CC21CCCCC1`, in assay [1], the EC50 is reported as 76.4 µM (not active).

Take `CS(=O)(=O)C1=NSC2=NC(=O)/C(=C\c3ccc(OS(=O)(=O)c4ccccc4)cc3)C(=N)N21`: the IC50 was 5.01 µM (active) in assay [5], 39.3 µM (active) in assay [6] and 4.17 µM (active) in assay [7].

Consider `CCCCC(=O)NC(=S)Nc1ccccc1C(=O)Nc1ccccc1`, for which the IC50 was > 66 µM (inactive) in [8], > 66.6 µM (inactive) at Beta-galactosidase, > 66 µM (inactive) in [9] and > 66.6 µM (inactive) in [10].

For the compound `COc1ccc(NC(=O)CSc2nc3ccccc3c(=O)n2-c2ccc(F)cc2)cc1`, the IC50 in assay [11] was > 66.6 µM (active).

On to `COc1ccc(S(=O)(=O)N(C(=O)c2ccncc2)c2ccc3oc4c(c3c2)CCCC4)cc1`, for which the CC50 (in general, the concentration at which the toxic effect on the cells reaches its halfway point) in assay [12] is > 40 µM (active).

Consider `CCN1C(=O)C(=CNNC(=O)c2ccccc2)C(=O)N(CC)C1=S`, for which, in assay [12], the CC50 was > 40 µM (active).

Regarding `COc1ccc(Oc2c(Cl)cnn(-c3cccc(Cl)c3)c2=O)cc1`, the IC50 in [13] was 10.5 µM (inactive).

With `COc1ccc(Oc2c(Cl)cnn(-c3cccc(C)c3)c2=O)cc1`, in [13], the IC50 was 5.4 µM (active).

As to `COc1ccc(/N=C2\S/C(=C\c3ccc(OC(C)C(=O)O)c(OC)c3)C(=O)N2CCc2c[nH]c3ccccc23)cc1` (stereo not drawn), the EC50 in assay [14] was 1.86 µM (active); on Streptokinase A, > 50 µM (not active); in the assay with Streptococcus it was 4.41 µM (active). The IC50 in assay [15] is > 50 µM (inactive); in assay [6], > 50 µM (active); in assay [16], 7.55 µM (active); in [17] it was 15.8 µM (active).

Turning to `Cc1cc(C(=O)N/N=C/c2c[nH]nc2-c2ccccc2)cs1`, the EC50 in assay [2], in assay [3] and in assay [4] was > 79.4 µM (not active) in each case.

Take `COCCNC(=O)c1cc(-c2ccc(Cl)cc2Cl)n[nH]1`: the IC50 in [18] was > 10 µM (inconclusive).

Take `CCOc1cc(C)c(Cl)cc1S(=O)(=O)Nc1cccnc1`: the IC50 in assay [18] is given as > 100 µM (not active).
